Measurements taken from patent publication US20210207188A1, “BETA-LACTAM COMPOUNDS AND METHODS OF USE THEREOF” (priority 2018, published 2021).

Legend:
TEM = target: T1, TEM (Escherichia coli, UniProt P62593); assay: Activity of beta-lactamases towards probes (fluorescence-based activity assay), TEM; assay type: biochemical; settings: probe 2.0 μM (MCW-002 1.1 μM, MCW-011 0.5 μM), PBS
T1 construct: purchased
Protocol: (§1) Recombinant his-tagged beta-lactamases, including NDM-1, IMP-1, KPC-2, VIM-2 and OXA-48 were overexpressed in Escherichia coli. The enzymes were purified using HisTrap Ni-NTA columns. AmpC and TEM were purchased from commercial sources.
(§2) The fluorescence-based activity assays were performed in phosphate-buffer saline. The concentration of some of the compounds were determined by boiling the compounds in PBS solution until fluorescence signal was saturated. The amount of released fluorophore was quantified via fluorescence spectroscopy by comparing to a corresponding calibration curve.

[1] = test system: beta-lactamases, including NDM-1, IMP-1, VIM-2, KPC-2, OXA-48, AmpC, and TEM; assay: Fluorescence-based activity assay, whole panel of tested beta-lactamases; assay type: biochemical; settings: conclusion from fluorescence signals
Protocol: as §1, §2
(§3) Among the tested beta-lactamases, NDM-1, IMP-1, VIM-2, KPC-2 and OXA-48 are carbapenemases, whereas AmpC and TEM are not. Nitrocefin was used as a control to test the activity of the beta-lactamases because it can be hydrolyzed by a wide range of beta-lactamases.

[2] = test system: clinical isolates (CPE, Carbapenemase Producing Enterobacteriaceae, and Non CPE strains); assay: Selectivity of probes with clinical isolates in lysis buffer (visible light and UV light); assay type: cell-based; settings: probe 10 μM
Protocol: The selectivity of some probes were evaluated with clinical isolates. The carbapenemases presence in the bacteria (CPE, i.e., Carbapenemase Producing Enterobacteriaceae) were verified by PCR (Polymerase Chain Reaction). 1 μL loop-full of each test bacterium from overnight-cultured LB agar plate were added to 100 μL PBS buffer with 0.5% CHAPS. The bacteria were vortexed to give a homogenious suspension and incubated for 15 min. To each of the bacteria-lysis buffer mixture (20 μL) were added quick test reagents (Probes (Final concentration=10 μM), CarbaNP solution A and CarbaNP solution B). CarbaNP solutions A and B were freshly prepared according to CLSI protocol, where solution A contains 10 mM zinc sulphate and phenol red buffer at pH=7.8±0.1 and solution B was a mixture of solution A with 3 mg/mL imipenem.

AmpC = assay: Activity of beta-lactamases towards probes (fluorescence-based activity assay), AmpC; assay type: biochemical; settings: probe 2.0 μM (MCW-002 1.1 μM, MCW-011 0.5 μM), PBS
Protocol: as §1, §2

KPC-2 = target: T2, KPC-2 (Klebsiella pneumoniae, UniProt Q9F663); assay type: biochemical; settings: for Kcat / Km: Michaelis-Menten kinetics; for fluorescence signal over time: probe 2.0 μM (MCW-002 1.1 μM, MCW-011 0.5 μM), PBS
T2 construct: His tag; made in house; host or cells: Escherichia coli
Protocol: as §1, §2

IMP-1 = target: T3, IMP-1 (Serratia marcescens, UniProt P52699); assay type: biochemical; settings: for 3S/k (detection limit of the probe towards the carbapenemase) / time until hydrolysis reaction complete (fluorescent signal plateaued) / fluorescence signal over time / Kcat / Km: IMP-1; for time until hydrolysis reaction complete (fluorescent signal plateaued): probe 2.0 μM; for fluorescence signal over time: probe 2.0 μM (MCW-002 1.1 μM, MCW-011 0.5 μM), PBS; for Kcat / Km: Michaelis-Menten kinetics
T3 construct: His tag; made in house; host or cells: Escherichia coli
Protocol: as §1, §2

NDM-1 = target: T4, NDM-1 (Klebsiella pneumoniae, UniProt C7C422); assay type: biochemical; settings: for Kcat / Km: Michaelis-Menten kinetics; for time until hydrolysis reaction complete (fluorescent signal plateaued): probe 2.0 μM; for fluorescence signal over time: probe 2.0 μM (MCW-002 1.1 μM, MCW-011 0.5 μM), PBS
T4 construct: His tag; made in house; host or cells: Escherichia coli
Protocol: as §1, §2

VIM-2 = target: T5, VIM-2 (Escherichia coli, UniProt Q5U7L7); assay type: biochemical; settings: for Kcat / Km: Michaelis-Menten kinetics; for fluorescence signal over time: probe 2.0 μM (MCW-011 0.5 μM), PBS
T5 construct: His tag; made in house; host or cells: Escherichia coli
Protocol: as §1, §2

OXA-48 = target: T6, OXA-48 (Klebsiella pneumoniae, UniProt Q6XEC0); assay type: biochemical; settings: for fluorescence signal over time: probe 2.0 μM (MCW-011 0.5 μM), PBS
T6 construct: His tag; made in house; host or cells: Escherichia coli
Protocol: as §1, §2

[3] = test system: beta-lactamases, including NDM-1, IMP-1, VIM-2, KPC-2, OXA-48, AmpC, and TEM; assay: Hydrolysis of nitrocefin by beta-lactamases, absorbance at 485 nm; assay type: biochemical; settings: nitrocefin 50 μM
Protocol: as §1
The enzymatic activity of these beta-lactamases in hydrolysing beta-lactam compounds was tested using nitrocefin as a probe. Nitrocefin (50 μM) dissolved in phosphate buffer (pH=7.4) was mixed with each purified beta-lactamase. Once hydrolyzed, nitrocefin underwent a rapid color change from yellow to red. The hydrolysis process of nitrocefin was monitored by measuring the absorbance at 485 nm with a Molecular Device SpectraMax® Paradigm® Multi-Mode Microplate Reader.
as §3

T3 sequence (P52699 19-246 limits assumed): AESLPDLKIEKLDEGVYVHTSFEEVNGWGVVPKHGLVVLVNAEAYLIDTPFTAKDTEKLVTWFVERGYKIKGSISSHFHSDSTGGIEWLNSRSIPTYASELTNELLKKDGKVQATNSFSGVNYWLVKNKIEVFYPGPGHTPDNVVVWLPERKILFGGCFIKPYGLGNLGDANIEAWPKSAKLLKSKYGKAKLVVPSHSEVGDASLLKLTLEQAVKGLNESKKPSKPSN
T6 sequence (Q6XEC0 23-265 limits assumed): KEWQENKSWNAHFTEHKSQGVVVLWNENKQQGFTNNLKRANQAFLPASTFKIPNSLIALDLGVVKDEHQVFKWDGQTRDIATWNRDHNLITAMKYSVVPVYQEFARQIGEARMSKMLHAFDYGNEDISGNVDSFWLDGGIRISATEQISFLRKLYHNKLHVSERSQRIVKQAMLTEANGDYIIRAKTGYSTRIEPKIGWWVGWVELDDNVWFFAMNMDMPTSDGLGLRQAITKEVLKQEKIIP
T4 sequence (C7C422 29-270 limits assumed): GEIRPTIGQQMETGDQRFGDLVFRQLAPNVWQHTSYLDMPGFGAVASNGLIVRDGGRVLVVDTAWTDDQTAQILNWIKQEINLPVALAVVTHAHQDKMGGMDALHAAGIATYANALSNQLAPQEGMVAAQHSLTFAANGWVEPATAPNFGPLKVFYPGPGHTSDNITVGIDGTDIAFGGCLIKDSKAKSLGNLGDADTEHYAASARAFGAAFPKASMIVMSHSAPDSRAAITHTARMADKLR
T2 sequence (Q9F663 25-293 limits assumed): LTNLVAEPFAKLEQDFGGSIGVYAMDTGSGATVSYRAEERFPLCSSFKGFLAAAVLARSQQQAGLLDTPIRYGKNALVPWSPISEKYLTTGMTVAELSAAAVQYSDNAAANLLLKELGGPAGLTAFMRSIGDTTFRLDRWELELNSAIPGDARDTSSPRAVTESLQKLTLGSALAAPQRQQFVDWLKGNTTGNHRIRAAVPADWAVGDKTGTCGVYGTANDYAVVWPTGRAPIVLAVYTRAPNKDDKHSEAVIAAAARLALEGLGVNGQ
T1 sequence (P62593 24-286 limits assumed): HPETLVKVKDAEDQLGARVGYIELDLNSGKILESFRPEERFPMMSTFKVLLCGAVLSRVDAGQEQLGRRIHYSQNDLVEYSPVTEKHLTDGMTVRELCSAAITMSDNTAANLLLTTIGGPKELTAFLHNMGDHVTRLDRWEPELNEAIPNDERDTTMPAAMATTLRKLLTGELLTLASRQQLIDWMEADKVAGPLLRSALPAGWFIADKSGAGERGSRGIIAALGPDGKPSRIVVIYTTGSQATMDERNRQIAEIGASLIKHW

Row | SMILES | fluorescence signal over time (TEM) | specificity among the tested beta-lactamases [1] | signal with panel of clinical isolates ([2]; incubated for 15 min) | signal with panel of clinical isolates ([2]; incubated for 120 min) | fluorescence signal over time (AmpC) | 3S/k (detection limit of the probe towards the carbapenemase) (KPC-2) [pM] | relative rate of hydrolysis reaction (KPC-2) | Kcat (KPC-2) [s⁻¹] | Km (KPC-2) [µM] | fluorescence signal over time (KPC-2) | 3S/k (detection limit of the probe towards the carbapenemase) (IMP-1) [pM] | time until hydrolysis reaction complete (fluorescent signal plateaued) (IMP-1) [min] | fluorescence signal over time (IMP-1) | Kcat (IMP-1) [s⁻¹] | Km (IMP-1) [µM] | 3S/k (detection limit of the probe towards the carbapenemase) (NDM-1) [pM] | Kcat (NDM-1) [s⁻¹] | Km (NDM-1) [µM] | time until hydrolysis reaction complete (fluorescent signal plateaued) (NDM-1) [min] | fluorescence signal over time (NDM-1) | also measured
1 | COc1cc(COc2ccc3nc4ccc(=O)cc-4oc3c2)ccc1OC/C=C/C1=C(C(=O)O)N2C(=O)[C@H]([C@@H](C)O)[C@H]2C1 [MCW-001, (5R,6S)-6-((R)-1-hydroxyethyl)-3-((E)-3-(2-methoxy-4-(((3-oxo-3H-phenoxazin-7-yl)oxy)methyl)phenoxy)prop-1-en-1-yl)-7-oxo-1-azabicyclo[3.2.0]hept-2-ene-2-carboxylic acid] | minimal changes in the fluorescent signal | specific for carbapenemases | observable colorimetric and fluorescence signal in CPE strains but not the Non CPE strains | observable colorimetric and fluorescence signal in CPE strains but not the Non CPE strains | minimal changes in the fluorescent signal | 4.43 | slower compared to the reactions with NDM-1 and IMP-1 | 2.17 ± 0.07 | 0.93 ± 0.11 | pronounced increase in the fluorescent signal | 0.333 | ≤ 2 | pronounced increase in the fluorescent signal | 33.9 ± 0.71 | 1.2 ± 0.08 | 0.327 | 29.8 ± 0.81 | 1.66 ± 0.13 | ≤ 2 | pronounced increase in the fluorescent signal | time until hydrolysis reaction complete (fluorescent signal plateaued) (KPC-2; probe 2.0 μM): about 25 min; fluorescence turn-on signal upon beta-lactam hydrolysis (IMP-1; MCW-001 1 μM, IMP-1 0.5 μM): more than 60 fold; absorption change over time (IMP-1; MCW-001 10 μM, IMP-1 2 μM): decreased in absorbance maximum at 480 nm and increase in absorbance maximum at 571 nm; 3S/k (detection limit of the probe towards the carbapenemase) (VIM-2): 3.28 pM; relative rate of hydrolysis reaction (VIM-2): slower compared to the reactions with NDM-1 and IMP-1; Kcat (VIM-2): 1.96 ± 0.05 s⁻¹; Km (VIM-2): 1.18 ± 0.1 µM; time until hydrolysis reaction complete (fluorescent signal plateaued) (VIM-2; probe 2.0 μM): about 25 min; fluorescence signal over time (VIM-2): pronounced increase in the fluorescent signal; 3S/k (detection limit of the probe towards the carbapenemase) (OXA-48): 30.3 pM; Kcat (OXA-48; Michaelis-Menten kinetics): 2.83 ± 0.18 s⁻¹; Km (OXA-48; Michaelis-Menten kinetics): 0.66 ± 0.08 µM; time until hydrolysis reaction complete (fluorescent signal plateaued) (OXA-48; probe 2.0 μM): > 30 min; fluorescence signal over time (OXA-48): pronounced increase in the fluorescent signal
2 | COc1cc(COc2ccc3nc4ccc(=O)cc-4oc3c2)ccc1OC/C=C/C1=C(C(=O)O)N2C(=O)[C@H]([C@@H](C)O)[C@H]2[C@H]1C [MCW-007, (4S,5R,6S)-6-((R)-1-hydroxyethyl)-3-((E)-3-(2-methoxy-4-(((3-oxo-3H-phenoxazin-7-yl)oxy)methyl)phenoxy)prop-1-en-1-yl)-4-methyl-7-oxo-1-azabicyclo[3.2.0]hept-2-ene-2-carboxylic acid] | minimal changes in the fluorescent signal | specific for some carbapenemases | observable colorimetric and fluorescence signal in some CPE strains but not the Non CPE strains | observable colorimetric and fluorescence signal in CPE strains but not the Non CPE strains | minimal changes in the fluorescent signal | 8.50 | slower compared to the reaction with NDM-1 and IMP-1 | 8.04 ± 1.96 | 0.77 ± 0.06 | pronounced increase in the fluorescent signal | 0.379 | ≤ 5 | pronounced increase in the fluorescent signal | 116 ± 2.81 | 1.33 ± 0.08 | 0.439 | 95.1 ± 4.32 | 1.56 ± 0.17 | ≤ 5 | pronounced increase in the fluorescent signal | 3S/k (detection limit of the probe towards the carbapenemase) (VIM-2): 5.22 pM; relative rate of hydrolysis reaction (VIM-2): slower compared to the reaction with NDM-1 and IMP-1; Kcat (VIM-2): 6.87 ± 0.11 s⁻¹; Km (VIM-2): 0.92 ± 0.04 µM; fluorescence signal over time (VIM-2): pronounced increase in the fluorescent signal; 3S/k (detection limit of the probe towards the carbapenemase) (OXA-48): 367 pM; fluorescence signal over time (OXA-48): did not provide significant fluorescence response
3 | O=C(Cc1cccs1)N[C@@H]1C(=O)N2C(C(=O)O)=C(/C=C/c3ccc([N+](=O)[O-])cc3[N+](=O)[O-])CS[C@H]12 [nitrocefin] | – | – | – | – | – | – | – | – | – | – | – | – | – | – | – | – | – | – | – | – | hydrolysis of nitrocefin ([3]; all of the tested beta-lactamases): can hydrolyze nitrocefin; time until hydrolysis reactions complete (absorption at 485 nm plateaued) ([3]; except NDM-1): ≤ 30 min
